Source: patent publication US20130123618A1, “Imaging Agents” (priority 2008, published 2013)
Where two headings read alike, the source gives them in different places.

Key:
[1] = test system: A549, human lung cancer cells implanted in flanks; experiment: tissue distribution in SCID mice bearing A549 tumors; format: in vivo; settings: for tissue distribution, blood / tissue distribution, bone / tissue distribution, brain / tissue distribution, heart / tissue distribution, kidney / tissue distribution, liver / tissue distribution, lung / tissue distribution, muscle / tissue distribution, pancreas / tissue distribution, spleen / tissue distribution, tumor: A549 tumor-bearing SCID mice, tail vein, ave, listed as Anti 2-[^18F]FACPC Enantiomer 2
Method: (§1) For the in vitro amino acid uptake studies, all cells can be grown to monolayer confluency in T-175 culture flasks [Corning, Corning, N.Y.] (approx. 1×10^8 cells/flask) in Dulbecco's Modified Eagle's Medium (DMEM) [Sigma, St. Louis, Mo.] in a humidified incubator (37° C., 5% CO2/95% air). Media are supplemented with 10% fetal calf serum [Hyclone, Logan, Utah], and antibiotics (10,000 U/ml penicillin and 10 mg/ml streptomycin) (Sigma, St. Louis, Mo.). For tissue culture passage, monolayer cells are detached by gentle trypsinization, resuspended in complete media, and split 1:10 into new T-flasks. Cultures are passaged weekly, and fed fresh media every 2 to 3 days. To initiate tumor growth in SCID mice, 1×10^6 cells are injected s.c. bilaterally into the flanks (inguinal region) of the recipient animals using a 1 ml syringe with a 27 gauge needle. Ex vivo experiments can be performed with animals containing tumors weighing between 500 mg and 1 g, as estimated by caliper measurement (tumor weight=(π/6)*abc, where a, b and c are the tumor length, width and height, respectively).
(§2) Tissue distribution of the compounds is measured in SCID mice (average weight, 20-25 g) bearing human tumors as follows. The candidate radioligands (20 uCi in 0.4 ml 0.9% NaCl) are injected into the tail vein of tumor-bearing mice. […] Tissues (blood, heart, liver, lungs, kidneys, bone, thyroid, muscle, brain and tumor) are excised, rinsed in saline, and blotted dry. The tissues are weighed, placed into 12×75 mm glass vials, the radioactivity determined with a gamma counter, and the percent dose/gram calculated. Total activities of blood and muscle are calculated by assuming that they account for 7% and 40% of the total body mass, respectively.
(§3) Tables 3-7 show the results of the biodistribution studies with the separate enantiomers of anti-2-[^18F]FACPC and racemic anti-2-[^18F]FACBC as a comparison in SCiD mice implanted in their flanks with A549, human lung cancer cells and DU145, human prostate cancer cells.

[2] = test system: DU145, human prostate cancer cells implanted in flanks; experiment: tissue distribution in SCID mice bearing DU145 tumors; format: in vivo; settings: DU145 tumors, SCID mice, time points sampled post injection
Method: as §1, §2, §3

9L Rat gliosarcoma cells = experiment: in vitro amino acid uptake in 9L cells; format: cell-based
Text: (§4) Compounds have been evaluated in vitro for tumor binding specificity (i.e. uptake cells) using a variety of tumor cell lines available in the art, along with reference compounds such as Me-AlB and BCH. Detailed description of these assays can be found in Martarello et al. (2002) Journal of Medicinal Chemistry, 45:2250-2259 and McConathy et al. (2003) Nuclear Medicine and Biology, 30:477-490. These so called “amino acid uptake studies” are typically carried out with radiolabeled compounds in at least five phenotypically different human tumor cell lines (e.g., A549 lung carcinoma, MB468 breast carcinoma, DU145 prostate carcinoma-androgen independent, LnCap-androgen dependent, SKOV3 ovarian carcinoma, U87 glial blastoma, MIA PaCa-2 pancreas carcinoma, MDA MB231 breast carcinoma). These tumor cell lines can be grown either in vitro or in vivo with severe combined immunodeficiency (SCID) mice as a host. The afore-mentioned tumor cell lines are available at the Winship Cancer Institute of Emory University.
(§5) For the in vitro amino acid uptake studies, all cells can be grown to monolayer confluency in T-175 culture flasks [Corning, Corning, N.Y.] (approx. 1×10^8 cells/flask) in Dulbecco's Modified Eagle's Medium (DMEM) [Sigma, St. Louis, Mo.] in a humidified incubator (37° C., 5% CO2/95% air). […]
(§6) In the in vitro studies the uptake rate of each amino acid compound is measured in each tumor line, as well as the dominant transport mechanisms of each tumor cell line. After trypsinization, cells are resuspended in serum-free media, then counted on a hemocytometer, with viability assessed through Trypan blue staining. […] The vials are placed in a Cobra-II gamma counter (Packard, Meriden, Conn.), with the activity per cell number determined. […] Saline washes are performed as described above, and the filtered cells' radioactivity determined on the gamma counter. […]
(§7) The uptake of all compounds were measured in human and rat cancer cell lines and the dominant transport (“A” and “L”) mechanism of each culture were determined. […]

[3] = test system: DU145 Human Prostate carcinoma cells; experiment: in vitro amino acid uptake in DU145 cells; format: cell-based
Text: as §4, §5, §6, §7

[4] = test system: A549 Human Lung adenocarcinoma cells; experiment: in vitro amino acid uptake in A549 cells; format: cell-based
Text: as §4, §5, §6, §7

U87 Human Glioma cells = experiment: in vitro amino acid uptake in U87 cells; format: cell-based
Text: as §4, §5, §6, §7

[5] = test system: MIA PaCa-2 Human Pancreas carcinoma cells; experiment: in vitro amino acid uptake in MIA PaCa-2 cells; format: cell-based
Method: (§8) Compounds have been evaluated in vitro for tumor binding specificity (i.e. uptake cells) using a variety of tumor cell lines available in the art, along with reference compounds such as Me-AlB and BCH. Detailed description of these assays can be found in Martarello et al. (2002) Journal of Medicinal Chemistry, 45:2250-2259 and McConathy et al. (2003) Nuclear Medicine and Biology, 30:477-490. […]
as §6, §7

[6] = test system: MDA MB231 Human Breast carcinoma cells; experiment: in vitro amino acid uptake in MDA MB231 cells; format: cell-based
Method: as §8, §6, §7

[7] = test system: SKOV3 Human Ovarian carcinoma cells; experiment: in vitro amino acid uptake in SKOV3 cells; format: cell-based
Text: as §4, §5, §6, §7

[8] = test system: MDA MB468 Human Breast carcinoma cells; experiment: in vitro amino acid uptake in MDA MB468 cells; format: cell-based
Text: as §4, §5, §6, §7

[9] = test system: LnCap Human Prostate carcinoma cells; experiment: in vitro amino acid uptake in LnCap cells; format: cell-based
Method: as §8, §6, §7

tumor cells = experiment: overall conclusion of uptake studies in cancer cells in vitro; format: cell-based
Method: In the in vitro studies the uptake rate of each amino acid compound is measured in each tumor line, as well as the dominant transport mechanisms of each tumor cell line. After trypsinization, cells are resuspended in serum-free media, then counted on a hemocytometer, with viability assessed through Trypan blue staining. Approximately 1×10^7 cells are exposed to each compound (15 μCi) in 15 ml of amino acid free media for 5, 10, 15, 30 and 60 minutes at 37° C. Cells are then centrifuged at 150×g for 5 minutes, rinsed in 5 ml cold-saline, recentrifuged, resuspended in 3 ml saline, and placed into 12×75 mm glass vials (Fisher, Pittsburgh, Pa.). The vials are placed in a Cobra-II gamma counter (Packard, Meriden, Conn.), with the activity per cell number determined. Inhibition studies determine the dominant transport mechanism (L, A or ASC) for each line [Martarello et al. (2002) supra; McConathy et al. (2003) supra]. For these studies, cells are exposed to the compounds for 30 minutes in amino acid free media containing one of three inhibitors (2-amino-norbornyl-2-carboxylic acid (BCH), 10 mM; α-(methylamino)-isobutyric acid (MeAlB), 10 mM; and an alanine-serine-cysteine mixture 1:1:1 (acs), 10 mM). Saline washes are performed as described above, and the filtered cells' radioactivity determined on the gamma counter. Comparisons with the 30 minute control uptake indicate the major transporters used. Results of these studies are found in FIGS. 1-18.
Approximately 10^6 cells were exposed to the [^18F]amino acid candidate (5 μCi) in 3 ml of amino acid-free media±transporter inhibitors (10 mM) for 30 minutes under incubation conditions by the method previously described (McConathy, J.; Martarello, L.; Malveaux, E.; Camp, V.; Bowers, G.; Olson, J.; Goodman, M. (2002) Radiolabeled amino acids for tumor imaging with PET: radiosynthesis and biological evaluation of [^18F]2-amino-3-fluoro-2-methylpropanoic acid and [^18F]3-fluoro-2-methyl-2-(methylamino)-propanoic acid. J. Med. Chem. 45, 2240-2249). The inhibition studies determined the dominant transport mechanism (L, A) for each candidate PET amino acid for each tumor model. 2-Methylaminoisobutyric acid (MeAlB) and 2-aminobicyclo-[2.2.1]-heptane-2-carboxylic acid (BCH) serve as inhibitors for the “A”, “L” transport systems, respectively.

Morris 51236 hepatomas = settings: cited from earlier work
tumor lesions = settings: 7 human subjects, PET scanner; cited from earlier work
[10] = test system: tumor lesions in 33 patients; settings: single photon rectilinear scanner; cited from earlier work
[11] = carbon-14 labeled, rats transplanted with Morris 51236 hepatomas

SMILES: N[C@]1(C(=O)O)CCC[C@@H]1[18F] (mixture of isomers) [Enantiomer 13, (1S,2S) and (1R,2R) anti-1-amino-2-[^18F]fluorocyclopentyl-1-carboxylic acid]
- uptake of radioactivity in the tumors compared with muscle ([1]; A549 tumors, SCID mice, time points sampled post injection): greater than muscle
- uptake of radioactivity in the tumors compared with muscle [2]: greater than muscle

SMILES: N[C@]1(C(=O)O)CCC[C@@H]1[18F] (single isomer, unassigned; enantiomer 2) [Enantiomer 2, anti-2-[^18F]FACPC]
- % Dose uptake per 0.5 × 10−6 Cells (9L Rat gliosarcoma cells): 7.5 % Dose/0.5 × 10^−6
- % Dose uptake per 0.5 × 10−6 Cells [3]: 4.7 % Dose/0.5 × 10^−6
- % Dose uptake per 0.5 × 10−6 Cells [4]: 9.6 % Dose/0.5 × 10^−6
- % Dose uptake per 0.5 × 10−6 Cells (U87 Human Glioma cells): 17 % Dose/0.5 × 10^−6
- % Dose uptake per 0.5 × 10−6 Cells [5]: 3.8 % Dose/0.5 × 10^−6
- % Dose uptake per 0.5 × 10−6 Cells [6]: 6.4 % Dose/0.5 × 10^−6
- % Dose uptake per 0.5 × 10−6 Cells [7]: 5.5 % Dose/0.5 × 10^−6
- % Dose uptake per 0.5 × 10−6 Cells [8]: 7.5 % Dose/0.5 × 10^−6
- % Dose uptake per 0.5 × 10−6 Cells [9]: 3.8 % Dose/0.5 × 10^−6
- tissue distribution, blood ([1]; 15 min): 3.68 percent dose/gram
- tissue distribution, bone ([1]; 15 min): 2.50 percent dose/gram
- tissue distribution, brain ([1]; 15 min): 0.53 percent dose/gram
- tissue distribution, heart ([1]; 15 min): 3.18 percent dose/gram
- tissue distribution, kidney ([1]; 15 min): 10.81 percent dose/gram
- tissue distribution, liver ([1]; 15 min): 2.86 percent dose/gram
- tissue distribution, lung ([1]; 15 min): 4.75 percent dose/gram
- tissue distribution, muscle ([1]; 15 min): 2.07 percent dose/gram
- tissue distribution, pancreas ([1]; 15 min): 40.68 percent dose/gram
- tissue distribution, spleen ([1]; 15 min): 9.37 percent dose/gram
- tissue distribution, tumor ([1]; 15 min): 8.13 percent dose/gram
- tissue distribution, blood ([1]; 60 min): 1.17 percent dose/gram
- tissue distribution, bone ([1]; 60 min): 1.77 percent dose/gram
- tissue distribution, brain ([1]; 60 min): 0.58 percent dose/gram
- tissue distribution, heart ([1]; 60 min): 1.82 percent dose/gram
- tissue distribution, kidney ([1]; 60 min): 3.73 percent dose/gram
- tissue distribution, liver ([1]; 60 min): 1.22 percent dose/gram
- tissue distribution, lung ([1]; 60 min): 1.77 percent dose/gram
- tissue distribution, muscle ([1]; 60 min): 1.78 percent dose/gram
- tissue distribution, pancreas ([1]; 60 min): 16.42 percent dose/gram
- tissue distribution, spleen ([1]; 60 min): 2.95 percent dose/gram
- tissue distribution, tumor ([1]; 60 min): 5.78 percent dose/gram
- selective uptake in tumor cells (tumor cells): selectively taken up in tumor cells

SMILES: NC1(C(=O)O)CCC1 [ACBC]
- tumor uptake (Morris 51236 hepatomas; rat, in vivo): 4.6 % dose/g

SMILES: NC1(C(=O)O)CCCCC1 [ACHC, 1-amino-cyclohexane-1-carboxylic acid]
- tumor uptake (Morris 51236 hepatomas; [11]): 0.9 % dose/g

SMILES: NC1(C(=O)O)CCCC1 [ACPC, 1-amino-cyclopentane-1-carboxylic acid]
- tumor uptake (Morris 51236 hepatomas; [11]): 3.6 % dose/g

SMILES: NC1(C(=O)O)CC1 [ACPRC, 1-amino-cyclopropane-1-carboxylic acid]
- tumor uptake (Morris 51236 hepatomas; [11]): 1.2 % dose/g

SMILES: NC1([11C](=O)O)CCC1 [[^11C]ACBC, 1-aminocyclobutane-1-[^11C]carboxylic acid]
- uptake in lesions (tumor lesions): increased uptake was observed in lesions in all subjects

SMILES: NC1([11C](=O)O)CCCC1 [[^11C]ACPC, 1-Aminocyclopentane-1 [^11C]Carboxylic Acid]
- lesions with increased uptake [10]: 70%
- uptake in lesions (tumor lesions): increased uptake was observed in lesions in all subjects
